Experimental data published in publication PMC8619434 (Viruses, 2021).
Values after ≈ are worked out from the molar mass of the structure shown. Where a name gives a salt, the structure may show the parent alone. Read-outs that look alike come from different tables or passages of the source.

Legend:
[1] = system: SARS-CoV-2 spike protein pseudovirus; assay: organism not typed; assay type: cell-based
293T-ACE2 cells = settings: for % viability (Table S3): 10 µM
[2] = system: SARS-CoV-2 spike protein pseudovirus; assay type: cell-based
MERS-CoV-S pseudovirus = assay type: cell-based
VSV-G pseudovirus = assay: microbe, parasite or virus in culture; assay type: cell-based, vesicular stomatitis virus; settings: Pseudovirus, 293T/ACE2, read-out: % Infectivity of VSV-G pv
SARS-CoV-1-S pseudovirus = assay type: cell-based
[3] = values for the salts; ref chemical supplier datasheets; cited from earlier work
[4] = system: SARS-CoV-2 spike protein pseudovirus; assay type: cell-based; remark: listed apart in the source
in vitro = settings: human
[5] = predictions for the uncharged form; ref https://go.drugbank.com; cited from earlier work
[6] = system: SARS-CoV-2 spike protein pseudovirus; assay type: cell-based; remark: listed apart in the source
[7] = system: SARS-CoV-2 spike protein pseudovirus; assay type: cell-based; remark: listed apart in the source
[8] = 293T/ACE2, 48 h, read-out: % Infectivity of SARS-2-Spike pv
[9] = 293T/ACE2, read-out: IC50 of SARS-CoV-2-S pseudovirus infectivity

Row | Molecule | inhibition of MERS-CoV-S pseudovirus infection (MERS-CoV-S pseudovirus) | activity at 10 µM [1, 8] [%] | IC50 [1, 9] [µM] | activity at 10 µM (VSV-G pseudovirus) [%] | inhibition of SARS-CoV-1-S pseudovirus infection (SARS-CoV-1-S pseudovirus) | water solubility b [3] [µM] | viability (in vitro; % Viability of SARS-2-Spike pv) [%] | water solubility a [5] [µM] | also measured
1 | Cc1ccc(NC(=O)c2ccc(CN3CCN(C)CC3)cc2)cc1Nc1nccc(-c2cccnc2)n1 [imatinib] |  |  |  |  |  |  |  |  | % Infectivity of SARS-2-Spike pv [1]: 81%; % Viability of SARS-2-Spike pv (293T-ACE2 cells; human): 103%
2 | C[C@@H]1CCO[C@H]2Cn3cc(C(=O)NCc4ccc(F)cc4F)c(=O)c(O)c3C(=O)N12 [S/GSK1349572] |  |  |  |  |  |  |  |  | activity ([1]; 10 µM; read-out: % infectivity (Table S3, kite-shaped molecules in order of inhibition)): 16.2%; % viability (Table S3) (293T-ACE2 cells): 94%
3 | CCN(CCO)CCCC(C)Nc1ccnc2cc(Cl)ccc12 (centres unmarked) [hydroxychloroquine sulfate] | inhibited | 2 | 0.66 | 103 | inhibited | 200000 | 90 | 60 | inhibition of SARS-CoV-2 pseudovirus infection of A549-ACE2 cells [2]: failed to inhibit; IC50 ([1]; read-out: IC50 of SARS-CoV-2-S pseudovirus infectivity): 0.7 µM; % infectivity in attachment assay [4]: did not inhibit attachment
4 | CC(CN(C)C)CN1c2ccccc2CCc2ccccc21 (centres unmarked) [trimipramine maleate] |  | 14 | 5.35 | 95 |  | 5000 | 92 | 88 | % infectivity of SARS-CoV-2 pseudovirus in Calu3 cells [6]: 8%
5 | CN1CCN(CCCN2c3ccccc3Sc3ccc(C(F)(F)F)cc32)CC1 [trifluoperazine 2HCl] | non-significant inhibition | 5 | 3.3 | 80 | significant inhibition |  | 83 |  | 
6 | CCN(CC)CCCC(C)Nc1ccnc2cc(Cl)ccc12 (centres unmarked) [chloroquine diphosphate] | inhibited | 1 | 0.32 | 83 | inhibited |  |  |  | inhibition of SARS-CoV-2 pseudovirus infection of A549-ACE2 cells [2]: failed to inhibit; viability (in vitro): 123%
7 | CN1CCC(=C2c3ccccc3CCc3sccc32)CC1 [pizotifen malate] |  | 7 | 3.46 | 77 |  |  | 106 | 16 | % infectivity of SARS-CoV-2 pseudovirus in Calu3 cells [6]: 13%
8 | CN1CC2c3ccccc3Oc3ccc(Cl)cc3C2C1 (centres unmarked) [asenapine] |  | 4 |  | 71 |  | 9000 | 92 | 78 (≈ 22.3 µg/mL) | combination effect with hydroxychloroquine on SARS-CoV-2 pseudovirus infectivity [1]: additive effects
9 | COc1cc2c(Nc3ccc(Br)cc3F)ncnc2cc1OCC1CCN(C)CC1 [vandetanib] |  | 1 | 6.45 | 125 |  |  |  |  | viability (in vitro): 89%; toxicity in Calu3 cells (word printed in Figure 7) (Calu3 cells): toxic
10 | Cc1ccc(NC(=O)c2ccc(CN3CCN(C)CC3)cc2)cc1Nc1nccc(-c2cccnc2)n1 [imatinib mesylate, imatinib] |  |  |  |  |  |  |  |  | % Infectivity of SARS-2-Spike pv [1]: 1%; % Viability of SARS-2-Spike pv (293T-ACE2 cells; human): 22%
11 | CN(C)CCCN1c2ccccc2Sc2ccc(Cl)cc21 [chlorpromazine HCl] |  | 6 | 3.79 | 58 |  | 141000 | 65 | 12 | % infectivity, drug added at 1 hpi (post-entry) [7]: 35%
12 | OCCOCCN1CCN(C2=Nc3ccccc3Sc3ccccc32)CC1 [quetiapine] |  |  |  |  |  |  |  |  | activity ([1]; read-out: % infectivity (Table S3, kite-shaped molecules in order of inhibition); 10 µM): 113%; % viability (Table S3) (293T-ACE2 cells; human): 101%
13 | CN1CCN(c2nc(C3=C(c4c[nH]c5ccccc45)C(=O)NC3=O)c3ccccc3n2)CC1 [sotrastaurin] | non-significant inhibition | 8 | 6.89 | 76 | significant inhibition |  | 89 |  | 
14 | CSc1ccc2c(c1)N(CCC1CCCCN1C)c1ccccc1S2 (centres unmarked) [thioridazine HCl] | non-significant inhibition | 6 |  | 69 | significant inhibition | 122000 | 71 | 2.1 | % infectivity of SARS-CoV-2 pseudovirus in Calu3 cells [6]: 22%; % infectivity in attachment assay [4]: 28%
15 | heparin sodium |  |  |  |  |  |  |  |  | % Infectivity of SARS-2-Spike pv [1]: 88%; % Viability of SARS-2-Spike pv (293T-ACE2 cells): 98%
